Measurements from patent US20250263370A1 (Tay Therapeutics Limited, priority 2022, published 2025).
Where two headings read alike, the source gives them in different places.

Legend:
BRD4 BD1 = BRD4 BD1 (Homo sapiens (Human), UniProt O60885); experiment: NanoBRET bromodomain assay, NanoLuc-BRD4-BD1 fusion in HEK293 cells; type: cell-based; conditions: top concentration 10 μM
Experimental: HEK293 cells were transfected using NanoLuc-BRD4-BD1 or NanoLuc-BRD4-BD2 fusion vectors and incubated at 37° C. in an atmosphere of 5% CO2 for 20-24 hours. The transfected cells were then dispensed into 96-well plates using 90 μl cell suspension per well containing 2×10^5 cells/mL in Opti-MEM and 1× final concentration of tracer. 90 μL per well of cell suspension without tracer was also dispensed into at least 3 wells as “No tracer control samples” for background correction. Serially diluted test compounds were prepared at 1000× concentration in DMSO and further diluted to 10× concentration in Opti-MEM. […] Plates were then incubated at 37° C. +5% 002 incubator for 2 hours. […] Donor emission (450 nm) and acceptor emission (610 nm) were measured using PHERAstar (BMG LabTech). For data analysis, the raw BRET ratio was generated and converted to milliBRET units with background correction using the formula: [(Acceptorsample/Donorsample−(Acceptorno tracer control/Donorno tracer control)]×1000. The mBU data was plotted as a function of compound concentration and IC50s for BRET assay were determined by nonlinear regression analysis of concentration response curves using the Collaborative Drug Discovery Vault software. The fold-selectivity was calculated by dividing the IC50 for BRD4 BD1 by the IC50 for BRD4 BD2.

[1] = Intrinsic clearance in liver microsomes, rat; type: in vitro ADME; conditions: rat, liver microsomes, pH 7.4, rat liver microsomes, Method 1; read-out: Half-Life (T1/2) (min), Rat
Experimental: From stock solution of compound on 10 mM DMSO, a working solution of 0.1 mM is prepared by diluting the compound in DMSO. 6.25 μL of a 20 mg/mL solution of microsomes in PBS pH 7.4 buffer is added to 216.25 μL PBS pH 7.4 buffer (final microsome concentration—0.5 mg/mL). 25 μL of 10 mM solution of NADPH in PBS pH 7.4 buffer is added to the incubations (final NADPH concentration—1 mM). The mixture is pre-warmed to 37° C. for 10 minutes. 2.5 μL of test compound working solution is added (final compound concentration—1 μM with 1% DMSO). Aliquots of 30 μL are taken from the reaction solution at 0.5, 5, 15, 30 and 60 minutes. The reaction was stopped by the addition of 5 volumes of cold acetonitrile with IS (100 nM alprazolam, 200 nM caffeine and 100 nM tolbutamide). Samples were centrifuged at 3, 220 g for 40 minutes. Aliquots of 100 μL of the supernatant are mixed with 100 μL of ultra-pure H2O and used for LC-MS/MS analysis. The percent compound remaining at each time point is calculated with respect to that of the 0.5 min sample. The data are analysed to calculate half-life. Control experiments are run without NADPH and blank samples are prepared using DMSO without the test compound.
A 50 mM stock solution (in DMSO) is prepared for the compound. From the stock solution, a working solution of 0.5 mM is prepared by diluting the compound in DMSO. This concentration of working solution is prepared considering a final concentration of 1 uM with 0.1% DMSO. The compound (1 μL of working solution) is spiked in PBS with pH 7.4 ([…]) at a concentration of 1 μM. Subsequently, 110 μL of 10 mM NADPH is added (as a co-factor). The sample is incubated at 37° C. for 15 min. Following this, pre-warmed liver microsomes (27.5 μL; final protein conc. 0.5 mg/mL) are added. The samples are then incubated at 37° C. Aliquots of samples are withdrawn at 0, 5, 15, 30, 45 and 60 min. The reaction is stopped by using chilled acetonitrile containing internal standard. The samples are centrifuged, and the supernatants analysed by LC-MS/MS. The percent compound remaining at each time point is calculated with respect to that of the 0 min sample. The data are then analysed to calculate half-life and intrinsic clearance (CLint). Control experiments are run without NADPH and blank samples are prepared using DMSO without the test compound.

BRD4 BD2 = BRD4 BD2 (Homo sapiens (Human), UniProt O60885); experiment: NanoBRET bromodomain assay, NanoLuc-BRD4-BD2 fusion in HEK293 cells; conditions: for IC50: NanoBRET, HEK293 cells, top concentration 10 μM; for Fold selectivity: IC50 for BRD4 BD1 divided by IC50 for BRD4 BD2, qualitative if an IC50 is at the upper limit;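 on all read-outs here: tracer displacement BRET read in transfected cells after 2 h compound exposure at 37 °C, signal in milliBRET units corrected against no-tracer background wells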
[2] = Sprague-Dawley rat pharmacokinetics, IV and PO cassette dosing; type: in vivo; conditions: Method 1; for IV T1/2: IV 1 mg/kg; for PO F: PO 5 mg/kg
Experimental: Compounds were formulated in 5% DMSO, 40% PEG-400, 55% Milli-Q water at a concentration of 0.2 mg/mL for IV and at 0.5 mg/mL for PO. Two male Sprague-Dawley rats per arm were dosed with up to 5 compounds in cassette mode, which each compound being dosed at 1 mg/kg IV and 5 mg/kg PO. Blood was sampled at various timepoints and plasma isolated. 50 μL of plasma with 5 μL of blank Sprague-Dawley rat plasma were added to 200 μL of acetonitrile containing IS mixture. The samples were vortexed for 30 s. After centrifugation at 4 degrees Celsius, 3900 rpm for 15 min, the supernatant was diluted 3 times with water. 20 μL of diluted supernatant was injected into the LC/MS/MS system for quantitative analysis and concentration of analyte determined by comparison with matrix matched standard curve. WinNonlin (Phoenix™, version 8.3) or other similar software may be used for pharmacokinetic calculations.

[3] = Plasma stability assay, rat plasma; type: in vitro ADME; conditions: Method 2 (10 μM)
Experimental: From stock solution of compound in 10 mM DMSO, a working solution of 1 mM is prepared by diluting the compound in DMSO. To 398 μL of plasma pre-warmed at 37° C. for 15 minutes), 2 μL of working solution of compound is added, resulting in a final concentration of 5 μM (0.5% DMSO) for the compound. The sample is then incubated at 37° C. Aliquot is withdrawn at specified time-points (0, 15, 30, 60 and 120 mins). The reaction is stopped by addition of 450 μL cold acetonitrile containing internal standard (IS). […] Aliquots of the supernatant is analysed using LC-MS/MS. The percent remaining of the compound at each time point is calculated with respect to the control sample (0 min time-point).
A working solution of compound (500 μM) is prepared in DMSO (100%). To 735 μL of plasma, 15 μL of working solution of compound is added—resulting in a final concentration of 10 μM (2% DMSO) for the compound. The sample is then incubated at 37° C. Aliquot is withdrawn at time-points—0, 15, 30, 60, 90 and 120 mins. The reaction is stopped by using chilled acetonitrile containing internal standard (IS). The samples are centrifuged and the supernatants analyzed using LC-MS/MS. The percent remaining of the compound at each time point is calculated with respect to the control sample (0 min time-point).

Molecule	IC50 (BRD4 BD1)	half-life at 1 μM [1]	IC50 (BRD4 BD2; BRD4 BD2 (IC50))	Fold selectivity (BRD4 BD2)	IV T1/2 [2]	PO F [2]	Plasma Stability (% remaining at 120 minutes), Rat [3]	IC50 (BRD4 BD2; read-out: BRD4 BD2 (IC50))
CCNC(=O)c1cc(OC(C)c2ccccc2)c(C(=O)NC)[nH]1 (racemic) [Example 95, N^5-ethyl-N^2-methyl-3-(1-phenylethoxy)-1H-pyrrole-2,5-dicarboxamide]	≥ 10 µM	> 60 min	0.2 to 1 µM	X (Fold >2 and ≤50)				
CCNC(=O)c1cc(OC(C)c2ccc(Cl)cc2)c(C(=O)NC)[nH]1 (single isomer, unassigned) [Example 18, 3-(1-(4-chlorophenyl)ethoxy)-N^5-ethyl-N^2-methyl-1H-pyrrole-2,5-dicarboxamide]	≥ 10 µM		< 0.05 µM	XXX (Fold >200)	1.1 h	30%		
CCNC(=O)c1cc(OC(C)c2ccccc2F)c(C(=O)NC)[nH]1 (single isomer, unassigned) [Example 20, N^5-ethyl-3-(1-(2-fluorophenyl)ethoxy)-N^2-methyl-1H-pyrrole-2,5-dicarboxamide]	≥ 10 µM		0.05 to 0.2 µM	XX (Fold >50 and ≤200)	0.4 h	46%		
CNC(=O)c1[nH]c(C(=O)NC2CCC(O)CC2)cc1OC(C)c1ccc(Cl)cc1 (single isomer, unassigned) [Example 29, 3-(1-(4-chlorophenyl)ethoxy)-N^5-(4-hydroxycyclohexyl)-N^2-methyl-1H-pyrrole-2,5-dicarboxamide]		> 60 min		XX (Fold >50 and ≤200)			89%	
CNC(=O)c1[nH]c(C(=O)N[C@H]2CC[C@H](O)CC2)cc1OC(C)c1ccc(Cl)cc1F (single isomer, unassigned) [Example 38, 3-(1-(4-chloro-2-fluorophenyl)ethoxy)-N^5-(trans-4-hydroxycyclohexyl)-N^2-methyl-1H-pyrrole-2,5-dicarboxamide]	≥ 10 µM	> 60 min	0.05 to 0.2 µM	XX (Fold >50 and ≤200)	1.4 h	66%		
CCNC(=O)c1cc(OC(C)c2ccc(Cl)cc2F)c(C(=O)NC)[nH]1 (single isomer, unassigned) [Example 41, 3-(1-(4-chloro-2-fluorophenyl)ethoxy)-N^5-ethyl-N^2-methyl-1H-pyrrole-2,5-dicarboxamide]	≥ 10 µM	> 60 min	0.2 to 1 µM	X (Fold >2 and ≤50)	0.3 h	69%		
CNC(=O)c1[nH]c(C(=O)NC2CCC2)cc1OC(C)c1ccccc1F (single isomer, unassigned) [Example 43, N^5-cyclobutyl-3-(1-(2-fluorophenyl)ethoxy)-N^2-methyl-1H-pyrrole-2,5-dicarboxamide]	≥ 10 µM		0.05 to 0.2 µM	XX (Fold >50 and ≤200)	0.5 h	58%	20%	
CNC(=O)c1[nH]c(-c2ccc(F)cc2F)cc1O[C@@H](C)c1ccccc1 [Example 86, (S)-5-(2,4-difluorophenyl)-N-methyl-3-(1-phenylethoxy)-1H-pyrrole-2-carboxamide]	≥ 10 µM		1 to 10 µM	X (Fold >2 and ≤50)				
CNC(=O)c1[nH]c(-c2nc(C)c(C)[nH]2)cc1O[C@@H](C)c1ccccc1 [Example 87, (S)-5-(4,5-dimethyl-1H-imidazol-2-yl)-N-methyl-3-(1-phenylethoxy)-1H-pyrrole-2-carboxamide]	≥ 10 µM		0.05 to 0.2 µM	XX (Fold >50 and ≤200)				
CNC(=O)c1[nH]c(-c2cnn(C)c2)cc1O[C@@H](C)c1ccccc1 [Example 88, (S)-N-methyl-5-(1-methyl-1H-pyrazol-4-yl)-3-(1-phenylethoxy)-1H-pyrrole-2-carboxamide]	≥ 10 µM		0.05 to 0.2 µM	XX (Fold >50 and ≤200)				
CNC(=O)c1[nH]c(-c2ncc[nH]2)cc1O[C@@H](C)c1ccccc1 [Example 89, (S)-5-(1H-imidazol-2-yl)-N-methyl-3-(1-phenylethoxy)-1H-pyrrole-2-carboxamide]	≥ 10 µM		0.05 to 0.2 µM	XX (Fold >50 and ≤200)				
CNC(=O)c1[nH]c(-c2cc(C)nc(C)c2)cc1O[C@@H](C)c1ccccc1 [Example 90, (S)-5-(2,6-dimethylpyridin-4-yl)-N-methyl-3-(1-phenylethoxy)-1H-pyrrole-2-carboxamide]	≥ 10 µM		0.2 to 1 µM	X (Fold >2 and ≤50)				
CNC(=O)c1[nH]c(C(=O)N[C@H](C)C(F)(F)F)cc1O[C@@H](C)c1ccccc1 [Example 119, N^2-methyl-3-((S)-1-phenylethoxy)-N^5-((R)-1,1,1-trifluoropropan-2-yl)-1H-pyrrole-2,5-dicarboxamide]	≥ 10 µM		> 10 µM	— (Fold ≥0 and ≤2)				
CNC(=O)c1[nH]c(C(=O)N[C@@H](C)C(F)(F)F)cc1O[C@@H](C)c1ccccc1 [Example 120, N^2-methyl-3-((S)-1-phenylethoxy)-N^5-((S)-1,1,1-trifluoropropan-2-yl)-1H-pyrrole-2,5-dicarboxamide]	≥ 10 µM		> 10 µM	— (Fold ≥0 and ≤2)				
CNC(=O)c1[nH]c(C(=O)NC(C)(C)C)cc1O[C@@H](C)c1ccccc1 [Example 121]	≥ 10 µM		0.2 to 1 µM	X (Fold >2 and ≤50)				
CNC(=O)c1[nH]c(NC(C)=O)cc1O[C@@H](C)c1ccccc1F [Example 128, (S)-5-acetamido-3-(1-(2-fluorophenyl)ethoxy)-N-methyl-1H-pyrrole-2-carboxamide]	≥ 10 µM		0.05 to 0.2 µM	XX (Fold >50 and ≤200)				
(S)—N^2-ethyl-4-(1-(2-fluorophenyl) ethyl)-N^5,3-dimethyl-1H-pyrrole-2,5-dicarboxamide [Example 74]	≥ 10 µM			X (Fold >2 and ≤50)				1 to 10 µM
